# Experimental data published in patent US9296741B2, “Bromodomain inhibitors” (priority 2012, dated 2016).
# Legend:
# [1] = test system: breast cancer cell line MX-1; assay: MX-1 cell line proliferation assay; assay type: cell-based, human; settings: Homo sapiens, MX1, 72 h; MX-1 cells, 3-day proliferation, Cell Titer Glo; read-out: Cellular proliferation: EC50
# [2] = target: human BRD4 first bromodomain (BDI_K57-E168) (Homo sapiens (Human), UniProt O60885); assay: TR-FRET bromodomain binding assay, BRD4 first bromodomain
# [3] = Mouse liver microsome stability assay; assay type: in vitro ADME; settings: male, CD1, mouse, microsomes, pH 7.4
# [4] = Rat liver microsome stability assay; assay type: in vitro ADME; settings: rat liver microsomes (male Sprague-Dawley), 0.5 μM test compound, 0.25 mg/mL microsomal protein, pH 7.4, 37° C.; read-out: Stability in rat liver microsomes (t1/2 in minutes)
# [5] = Human liver microsome stability assay; assay type: in vitro ADME; settings: both sexes, human, microsomes, pH 7.4
# [6] = target: human BRD4 second bromodomain (BDII_E352-M457) (Homo sapiens (Human), UniProt O60885); assay: TR-FRET bromodomain binding assay, BRD4 second bromodomain
SMILES,EC50 [1] [µM],Ki [2] [µM],half-life at 0.5 μM [3] [min],half-life at 0.5 μM [4] [min],half-life at 0.5 μM [5] [min],Ki [6] [µM]
"Cn1cc(-c2cc(S(C)(=O)=O)ccc2OC[C@H]2CCC(=O)N2)c2cc[nH]c2c1=O [Example 226, 6-methyl-4-[5-(methylsulfonyl)-2-{[(2R)-5-oxopyrrolidin-2-yl]methoxy}phenyl]-1,6-dihydro-7H-pyrrolo[2,3-c]pyridin-7-one]",> 3,0.141,> 120,> 120,105,0.438
"Cn1cc(-c2cc(S(C)(=O)=O)ccc2OCCN2CCOCC2)c2cc[nH]c2c1=O [Example 227, 6-methyl-4-{5-(methylsulfonyl)-2-[2-(morpholin-4-yl)ethoxy]phenyl}-1,6-dihydro-7H-pyrrolo[2,3-c]pyridin-7-one]",0.658,0.0739,> 120,70,50,0.211
"Cn1cc(-c2cc(S(C)(=O)=O)ccc2OC[C@@H]2CCC(=O)N2)c2cc[nH]c2c1=O [Example 228, 6-methyl-4-[5-(methylsulfonyl)-2-{[(2S)-5-oxopyrrolidin-2-yl]methoxy}phenyl]-1,6-dihydro-7H-pyrrolo[2,3-c]pyridin-7-one]",> 3,0.039,> 120,107,> 120,0.108
"CC(COC(C)(C)C)Oc1ccc(S(C)(=O)=O)cc1-c1cn(C)c(=O)c2[nH]ccc12 (stereo not drawn) [Example 229, 4-{2-[(1-tert-butoxypropan-2-yl)oxy]-5-(methylsulfonyl)phenyl}-6-methyl-1,6-dihydro-7H-pyrrolo[2,3-c]pyridin-7-one]",0.288,0.0343,9,33,25,0.0613
"Cn1cc(-c2cc(S(=O)(=O)C(F)(F)F)ccc2OCC2CC2)c2cc[nH]c2c1=O [Example 243, 4-{2-(cyclopropylmethoxy)-5-[(trifluoromethyl)sulfonyl]phenyl}-6-methyl-1,6-dihydro-7H-pyrrolo[2,3-c]pyridin-7-one]",0.249,0.0115,109,20,> 120,0.0382
"Cn1cc(-c2cc(S(=O)(=O)C(F)(F)F)ccc2NCC2CC2)c2cc[nH]c2c1=O [Example 244, 4-{2-[(cyclopropylmethyl)amino]-5-[(trifluoromethyl)sulfonyl]phenyl}-6-methyl-1,6-dihydro-7H-pyrrolo[2,3-c]pyridin-7-one]",0.254,0.0232,87,6,53,0.0737
"CCS(=O)(=O)Nc1ccc(OCC2CC2)c(-c2cn(C)c(=O)c3[nH]ccc23)c1C [Example 251, N-[4-(cyclopropylmethoxy)-2-methyl-3-(6-methyl-7-oxo-6,7-dihydro-1H-pyrrolo[2,3-c]pyridin-4-yl)phenyl]ethanesulfonamide]",0.573,0.0631,44,23,118,0.171
"Cn1cc(-c2cc(S(C)(=O)=O)ccc2Oc2ccc(F)cc2F)c2cc(C(N)=O)[nH]c2c1=O [Example 252, 4-[2-(2,4-difluorophenoxy)-5-(methylsulfonyl)phenyl]-6-methyl-7-oxo-6,7-dihydro-1H-pyrrolo[2,3-c]pyridine-2-carboxamide]",0.246,0.0101,> 120,> 120,68,0.0017

# The next compounds have a lower EC50 [1] than those just listed; values first:
EC50 [1] [µM],Ki [2] [µM],half-life at 0.5 μM [3] [min],half-life at 0.5 μM [4] [min],half-life at 0.5 μM [5] [min],Ki [6] [µM],SMILES
0.0061,0.0066,43,24,63,0.005,"CC(C)COc1ccc(S(C)(=O)=O)cc1-c1cn(C)c(=O)c2[nH]ccc12 [Example 221, 6-methyl-4-[2-(2-methylpropoxy)-5-(methylsulfonyl)phenyl]-1,6-dihydro-7H-pyrrolo[2,3-c]pyridin-7-one]"
0.0076,0.0069,5,8,6,0.007,"Cn1cc(-c2cc(S(C)(=O)=O)ccc2OCC2CCCCC2)c2cc[nH]c2c1=O [Example 224, 4-[2-(cyclohexylmethoxy)-5-(methylsulfonyl)phenyl]-6-methyl-1,6-dihydro-7H-pyrrolo[2,3-c]pyridin-7-one]"
0.0236,0.0026,7,8,6,0.0015,"Cn1cc(-c2cc(S(C)(=O)=O)ccc2OCC2C[C@@H]3CC[C@H]2C3)c2cc[nH]c2c1=O (stereo partly drawn) [Example 230, 4-{2-[(1S,4R)-bicyclo[2.2.1]hept-2-ylmethoxy]-5-(methylsulfonyl)phenyl}-6-methyl-1,6-dihydro-7H-pyrrolo[2,3-c]pyridin-7-one]"
0.0665,0.0174,22,49,81,0.007,"Cn1cc(-c2cc(NS(=O)(=O)C3CC3)ccc2Oc2ccc(F)cc2F)c2cc[nH]c2c1=O [Example 235, N-[4-(2,4-difluorophenoxy)-3-(6-methyl-7-oxo-6,7-dihydro-1H-pyrrolo[2,3-c]pyridin-4-yl)phenyl]cyclopropanesulfonamide]"
0.025,0.0145,15,32,33,0.0051,"COCCS(=O)(=O)Nc1ccc(Oc2ccc(F)cc2F)c(-c2cn(C)c(=O)c3[nH]ccc23)c1 [Example 236, N-[4-(2,4-difluorophenoxy)-3-(6-methyl-7-oxo-6,7-dihydro-1H-pyrrolo[2,3-c]pyridin-4-yl)phenyl]-2-methoxyethanesulfonamide]"
0.035,0.003,2,7,3,0.0035,"Cn1cc(-c2cc(S(C)(=O)=O)ccc2OC2C3CC4CC(C3)CC2C4)c2cc[nH]c2c1=O (stereo not drawn) [Example 237, 6-methyl-4-{5-(methylsulfonyl)-2-[tricyclo[3.3.1.1^3,7]dec-2-yloxy]phenyl}-1,6-dihydro-7H-pyrrolo[2,3-c]pyridin-7-one]"
0.145,0.0204,90,110,72,0.0012,"CCNC(=O)c1cc2c(-c3cc(S(C)(=O)=O)ccc3Oc3ccc(F)cc3F)cn(C)c(=O)c2[nH]1 [Example 253, 4-[2-(2,4-difluorophenoxy)-5-(methylsulfonyl)phenyl]-N-ethyl-6-methyl-7-oxo-6,7-dihydro-1 H-pyrrolo[2,3-c]pyridine-2-carboxamide]"
0.0751,0.0796,91,> 120,74,0.0087,"Cn1cc(-c2cc(S(C)(=O)=O)ccc2Oc2ccc(F)cc2F)c2cc(C(=O)NCC(F)(F)F)[nH]c2c1=O [Example 254, 4-[2-(2,4-difluorophenoxy)-5-(methylsulfonyl)phenyl]-6-methyl-7-oxo-N-(2,2,2-trifluoroethyl)-6,7-dihydro-1H-pyrrolo[2,3-c]pyridine-2-carboxamide]"
